Assay [1] deals with HAP1 MTAP-deleted cell line. The assay can be described thus: SDMA in-cell western assay, HAP1 MTAP-deleted. The assay is classed as cell-based. The following applies: for IC50: Homo sapiens; for MTAP intact/deleted ratio: SDMA in-cell western. The method, boiled down: (§1)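 IC50 values come from SDMA signal quantified by in-cell western in two HAP1 lines, one with native MTAP levels and one lacking MTAP.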

Assay [2] deals with HAP1 MTAP-intact cell line. The assay can be described thus: SDMA in-cell western assay, HAP1 MTAP-intact. The format is cell-based. The settings on record: Homo sapiens. In short, it runs like this: as §1
The target of assay [3] is T1, PRMT5 (Homo sapiens, UniProt O14744).
T1 construct: purchased Viva (custom protein)
T1 sequence (O14744 whole entry): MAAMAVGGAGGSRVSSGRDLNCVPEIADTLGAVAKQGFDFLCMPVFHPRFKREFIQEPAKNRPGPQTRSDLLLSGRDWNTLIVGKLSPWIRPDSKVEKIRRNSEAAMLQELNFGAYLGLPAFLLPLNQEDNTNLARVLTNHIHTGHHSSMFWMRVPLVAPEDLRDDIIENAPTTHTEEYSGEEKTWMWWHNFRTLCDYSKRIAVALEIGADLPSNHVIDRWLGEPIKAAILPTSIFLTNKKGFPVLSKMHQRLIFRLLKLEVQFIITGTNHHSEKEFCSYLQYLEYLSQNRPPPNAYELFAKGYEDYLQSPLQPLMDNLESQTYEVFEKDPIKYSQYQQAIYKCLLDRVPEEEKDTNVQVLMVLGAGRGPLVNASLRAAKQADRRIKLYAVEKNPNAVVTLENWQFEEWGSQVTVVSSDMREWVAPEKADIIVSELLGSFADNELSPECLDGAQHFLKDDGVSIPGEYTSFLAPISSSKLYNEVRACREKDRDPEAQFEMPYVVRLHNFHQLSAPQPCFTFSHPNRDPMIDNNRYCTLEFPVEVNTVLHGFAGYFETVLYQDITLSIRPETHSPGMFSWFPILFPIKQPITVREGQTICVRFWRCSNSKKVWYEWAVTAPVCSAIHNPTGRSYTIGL
T1 sequence (Q9BQA1 whole entry partner): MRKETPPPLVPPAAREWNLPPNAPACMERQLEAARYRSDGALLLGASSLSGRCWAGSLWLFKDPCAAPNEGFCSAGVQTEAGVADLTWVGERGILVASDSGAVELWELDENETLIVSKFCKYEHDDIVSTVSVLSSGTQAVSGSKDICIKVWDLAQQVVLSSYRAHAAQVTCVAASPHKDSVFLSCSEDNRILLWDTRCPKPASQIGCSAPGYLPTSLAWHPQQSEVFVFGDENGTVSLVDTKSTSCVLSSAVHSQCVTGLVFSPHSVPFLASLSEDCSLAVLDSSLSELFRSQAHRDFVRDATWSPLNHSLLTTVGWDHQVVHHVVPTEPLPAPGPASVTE
Description: PRMT5 biochemical IC50 assay with SAM as cofactor.

Assay [4] concerns HAP1 MTAP-deleted cell line. Description: Viability assay, MTAP-deleted cell line. The format is cell-based. The settings on record: Homo sapiens. The source says: Table 1 additionally indicates IC50 values in a viability assay for the MTAP-deleted cell line (column 10), indicating the effect of treatment with compound on cell survival.
Assay [5] has as its target T1, PRMT5. The assay can be described thus: PRMT5 biochemical IC50 assay with no cofactor. The following applies: PRMT5, no cofactor. The source says: Table 1 indicates IC50 values (μM) against PRMT5 for exemplary compounds in the presence of SAM as cofactor, with no cofactor, and with MTA as cofactor, respectively (columns 4-6). […] Ki values can be calculated from the IC50 values as described in the Examples section. As detailed in the Examples section, for the assay performed in the presence of SAM, IC50=Ki×1.5 (Ki=IC50/1.5).

The target of assay [6] is T1, PRMT5. The assay can be described thus: PRMT5 biochemical IC50 assay with MTA as cofactor.
Setting [7] is: HAP1, SDMA in-cell western, HAP1 MTAP-deleted, read-out: HAP 1 MTAP deleted IC50.
Where [8] appears, read: IC50 ratio HAP1 MTAP-intact / HAP1 MTAP-deleted.
The mark [9] stands for this setting: HAP1, SDMA in-cell western, HAP1 MTAP-intact, read-out: MTAP HAP1 intact IC50.
The mark [10] stands for this setting: PRMT5, SAM as cofactor, read-out: SAM IC50.
[11] abbreviates: HAP1, viability assay, MTAP-deleted cell line, read-out: HAP1 MTAP deleted viability.
Setting [12] is: read-out: No Cofactor/ rel IC50.
Setting [13] is: HAP1, viability, HAP1 MTAP-deleted cell line, read-out: HAP1 MTAP deleted viability.
Setting [14] is: PRMT5, MTA as cofactor, read-out: MTA IC50.
Where [15] appears, read: HAP1, SDMA in-cell western, HAP1 MTAP-deleted, read-out: HAP1 MTAP deleted IC50.
The mark [16] stands for this setting: IC50 ratio HAP1 MTAP-intact vs HAP1 MTAP-deleted.
The mark [17] stands for this setting: HAP1, read-out: HAP1 MTAP deleted IC50.
Where [18] appears, read: HAP1, read-out: MTAP HAP1 intact IC50.
Setting [19] is: HAP1, read-out: HAP1 MTAP deleted viability.

Where two headings read alike, the source gives them in different places.

On to `Cc1cc(NC(=O)C(=O)N2C[C@H](C)CC[C@@H]2C2CCNC(=O)C2)cnc1N` (mixture of isomers) [Compound 159, N-(6-amino-5-methyl-3-pyridyl)-2-[(2S,5S)-5-methyl-2-(2-oxo-4-piperidyl)-1-piperidyl]-2-oxo-acetamide], for which the IC50 is above 1000 nM in assay [1] (setting [7]); above 1000 nM in assay [2] (setting [9]); 50 to 500 nM in assay [3] (setting [10]); above 10000 nM in assay [4] (setting [11]); 50 to 500 nM in assay [5] (setting [12]). In addition, the “MTAP intact/deleted ratio” value in assay [1] (setting [8]) is reported as “B (an IC50 ratio greater than or equal to 3 fold but lower than 10 fold)”.

With `CCc1cc(NC(=O)C(=O)N2C[C@@H](C)CC[C@@H]2c2ccc(N3CCN(C)CC3)c(Cl)c2)cnc1N` (racemic) [Compound 1265, N-(6-Amino-5-ethyl-3-pyridyl)-2-oxo-2-[rac-(2R,5S)-2-[3-chloro-4-(4-methylpiperazin-1-yl)phenyl]-5-methyl-1-piperidyl]acetamide], the IC50 in assay [1] (setting [7]) was below 100 nM; in assay [2] (setting [9]) it was 100 to 1000 nM; in assay [3] (setting [10]), 50 to 500 nM; in assay [4] (setting [13]), below 1000 nM; in assay [6] (setting [14]) it was 50 to 500 nM. Besides, the “MTAP intact/deleted ratio” value in assay [1] (setting [8]) is “A (an IC50 ratio greater than or equal to 10 fold)”.

For `C[C@@H]1CC[C@@H](c2ccc3c(c2)OCCN3)N(C(=O)C(=O)Nc2cncc(C(N)=O)c2)C1` (single isomer, unassigned) [Compound 605], the IC50 in assay [1] (setting [7]) was above 1000 nM; in assay [2] (setting [9]), above 1000 nM; in assay [3] (setting [10]), above 500 nM; in assay [4] (HAP1, viability IC50, MTAP-deleted cell line, read-out: HAP1 MTAP deleted viability), above 10000 nM; in assay [5] (read-out: No Cofactor/rel IC50) it was above 500 nM. The MTAP intact/deleted ratio result in assay [1] (setting [8]) is recorded as “B (an IC50 ratio greater than or equal to 3 fold but lower than 10 fold)”.

Turning to `CO[C@H]1C[C@H](c2ccc3scnc3c2)N(C(=O)C(=O)Nc2cncc(C(N)=O)c2)C[C@H]1C` (single isomer, unassigned) [Compound 1221], the IC50 in assay [1] (setting [15]) is 100 to 1000 nM; in assay [2] (setting [9]), above 1000 nM; in assay [3] (setting [10]) it was above 500 nM; in assay [4] (setting [11]) it was 1000 to 10000 nM; in assay [6] (setting [14]), 50 to 500 nM. Also, in assay [1] (setting [16]), the MTAP intact/deleted ratio result is “A (an IC50 ratio greater than or equal to 10 fold)”.

`CCc1cc(NC(=O)C(=O)N2C[C@@H](C)CC[C@@H]2c2cccc([C@H]3CCCN(C)C3)c2)cnc1N` (single isomer, unassigned) [Compound 1285]: the IC50 is below 100 nM in assay [1] (setting [7]); 100 to 1000 nM in assay [2] (setting [9]); 50 to 500 nM in assay [3] (setting [10]); below 1000 nM in assay [4] (setting [13]); below 50 nM in assay [5] (setting [12]). Also, the “MTAP intact/deleted ratio” value in assay [1] (setting [8]) is “A (an IC50 ratio greater than or equal to 10 fold)”.

For `CCc1cc(NC(=O)C(=O)N2C[C@@H](C)CC[C@@H]2c2ccc3sc(C4(O)CCN(C)CC4)nc3c2)cnc1N` [Compound 1107], the IC50 in assay [1] (setting [17]) is below 100 nM; in assay [2] (setting [18]), below 100 nM; in assay [3] (SAM IC50, PRMT5, SAM as cofactor), below 50 nM; in assay [4] (setting [19]), below 1000 nM; in assay [6] (MTA IC50, PRMT5, MTA as cofactor), below 50 nM. Also, the MTAP intact/deleted ratio entry in assay [1] (setting [16]) is given as “B (an IC50 ratio greater than or equal to 3 fold but lower than 10 fold)”.

In the case of `Cc1cc(NC(=O)C(=O)N2C[C@@H](C)CC[C@@H]2c2ccc3sc(N4CCN(C)CC4)nc3c2)cnc1N` [Compound 1158, N-(6-amino-5-methylpyridin-3-yl)-2-((2R,5S)-5-methyl-2-(2-(4-methylpiperazin-1-yl)benzo[d]thiazol-5-yl)piperidin-1-yl)-2-oxoacetamide], the IC50 in assay [1] (setting [17]) is below 100 nM; in assay [2] (setting [18]), below 100 nM; in assay [4] (setting [19]), below 1000 nM.

On to `[2H]c1nc2cc([C@H]3CC[C@H](C)CN3C(=O)C(=O)Nc3cnc(N)c(C)c3)ccc2s1` [Compound 1177], for which the values for the IC50 in assay [1] (setting [17]), in assay [2] (setting [18]) and in assay [4] (setting [19]) were below 100 nM, 100 to 1000 nM and below 1000 nM, respectively.

For the compound `CCc1cc(NC(=O)C(=O)N2C[C@@H](C)CC[C@@H]2c2cccc(Oc3cccnc3)c2)cnc1N` [Compound 1180], the IC50 was below 100 nM in assay [1] (setting [15]); 100 to 1000 nM in assay [2] (setting [9]); 50 to 500 nM in assay [3] (setting [10]); below 1000 nM in assay [4] (setting [11]); below 50 nM in assay [6] (setting [14]). For the same compound, the MTAP intact/deleted ratio entry in assay [1] (setting [16]) is “A (an IC50 ratio greater than or equal to 10 fold)”.

`COc1ncc(NC(=O)C(=O)N2C[C@@H](C)CC[C@@H]2c2cccc(N3CCN(C)CC3)c2)cc1C(N)=O` [Compound 1277, 2-methoxy-5-(2-((2R,5S)-5-methyl-2-(3-(4-methylpiperazin-1-yl)phenyl)piperidin-1-yl)-2-oxoacetamido)nicotinamide]: the IC50 in assay [1] (setting [7]) was below 100 nM; in assay [2] (setting [9]) it was 100 to 1000 nM; in assay [3] (setting [10]) it was 50 to 500 nM; in assay [4] (setting [13]) it was below 1000 nM; in assay [6] (setting [14]), below 50 nM. In addition, the “MTAP intact/deleted ratio” value in assay [1] (setting [8]) was “A (an IC50 ratio greater than or equal to 10 fold)”.

On to `CCc1cc(NC(=O)C(=O)N2C[C@@H](C)CC[C@@H]2c2cccc(Oc3cc(C)nc(C)c3)c2)cnc1N` [Compound 1297, N-(6-amino-5-ethylpyridin-3-yl)-2-((2R,5S)-2-(3-((2,6-dimethylpyridin-4-yl)oxy)phenyl)-5-methylpiperidin-1-yl)-2-oxoacetamide], for which the IC50 was below 100 nM in assay [1] (setting [7]); 100 to 1000 nM in assay [2] (setting [9]); 50 to 500 nM in assay [3] (setting [10]); below 1000 nM in assay [4] (setting [13]); below 50 nM in assay [6] (setting [14]).

`C[C@H]1CC[C@H](c2ccc3scnc3c2)N(C(=O)C(=O)Nc2cnc(N)c(C3CC3)c2)C1` [Compound 1319, N-(6-amino-5-cyclopropyl-3-pyridyl)-2-[(2R,5S)-2-(1,3-benzothiazol-5-yl)-5-methyl-1-piperidyl]-2-oxo-acetamide]: the IC50 in assay [1] (setting [17]) is below 100 nM; in assay [2] (setting [18]) it was 100 to 1000 nM; in assay [4] (setting [19]) it was below 1000 nM.

`Cc1cc(NC(=O)C(=O)N2C[C@@H](C)CC[C@@H]2c2ccc3sc([C@H]4CCN(C)C(=O)C4)nc3c2)cnc1N` [Compound 1333, N-(6-amino-5-methylpyridin-3-yl)-2-((2R,5S)-5-methyl-2-(2-(1-methyl-2-oxopiperidin-4-yl)benzo[d]thiazol-5-yl)piperidin-1-yl)-2-oxoacetamide]: the results for the IC50 in assay [1] (setting [17]), in assay [2] (setting [18]) and in assay [4] (setting [19]) were below 100 nM, below 100 nM and below 1000 nM, respectively.

As for `C[C@H]1CC[C@H](c2ccc3scnc3c2)N(C(=O)C(=O)Nc2cnc(N)c(C3COC3)c2)C1` [Compound 1356, N-[6-amino-5-(oxetan-3-yl)-3-pyridyl]-2-[(2R,5S)-2-(1,3-benzothiazol-5-yl)-5-methyl-1-piperidyl]-2-oxo-acetamide], the values for the IC50 in assay [1] (setting [17]), in assay [2] (setting [18]) and in assay [4] (setting [19]) were below 100 nM, 100 to 1000 nM and below 1000 nM, respectively.

Take `CCc1cc(NC(=O)C(=O)N2C[C@@H](C)CC[C@@H]2c2cccc(C(F)(F)CCN(C)C)c2)cnc1N` [Compound 1381, N-(6-amino-5-ethylpyridin-3-yl)-2-((2R,5S)-2-(3-(3-(dimethylamino)-1,1-difluoropropyl)phenyl)-5-methylpiperidin-1-yl)-2-oxoacetamide]: the IC50 in assay [1] (setting [7]) was below 100 nM; in assay [2] (setting [9]), 100 to 1000 nM; in assay [3] (setting [10]), below 50 nM; in assay [4] (setting [13]) it was below 1000 nM; in assay [6] (setting [14]), below 50 nM. For the same compound, the “MTAP intact/deleted ratio” value in assay [1] (setting [8]) is “A (an IC50 ratio greater than or equal to 10 fold)”.

In the case of `CCc1cc(NC(=O)C(=O)N2C[C@@H](C)CC[C@@H]2c2cccc(OCCCN(C)C)c2)cnc1N` [Compound 1384, N-(6-amino-5-ethylpyridin-3-yl)-2-((2R,5S)-2-(3-(3-(dimethylamino)propoxy)phenyl)-5-methylpiperidin-1-yl)-2-oxoacetamide], the IC50 in assay [1] (setting [7]) was below 100 nM; in assay [2] (setting [9]), below 100 nM; in assay [3] (setting [10]), 50 to 500 nM; in assay [4] (setting [13]), below 1000 nM; in assay [6] (setting [14]) it was below 50 nM. The “MTAP intact/deleted ratio” value in assay [1] (setting [8]) was “A (an IC50 ratio greater than or equal to 10 fold)”.

For the compound `CCc1cc(NC(=O)C(=O)N2C[C@@H](C)CC[C@@H]2c2cccc(CCCN(C)C)c2)cnc1N` [Compound 1393, N-(6-amino-5-ethylpyridin-3-yl)-2-((2R,5S)-2-(3-(3-(dimethylamino)propyl)phenyl)-5-methylpiperidin-1-yl)-2-oxoacetamide], the IC50 in assay [1] (setting [7]) is below 100 nM; in assay [2] (setting [9]), 100 to 1000 nM; in assay [3] (setting [10]), 50 to 500 nM; in assay [4] (setting [13]), below 1000 nM; in assay [6] (setting [14]), below 50 nM. Further, the “MTAP intact/deleted ratio” value in assay [1] (setting [8]) was “A (an IC50 ratio greater than or equal to 10 fold)”.

The values are drawn from US11999727B2 (Tango Therapeutics, Inc., priority 2020, dated 2024).
